The record followed here is PMC12578646, “Prodrug florfenicol amine is activated by intrinsic resistance to target Mycobacterium abscessus” (Nature Microbiology, 2025).

Series [1] has as its target T1, Eis2 (Mycobacteroides abscessus, UniProt B1MKV6).
T1 construct: gene MAB_4532c; Eis2–pET30a, TEV cleavable N-terminal 6 histidine tag (removed)
Briefly: Michaelis-Menten acetylation kinetics with purified Eis2, DTNB free-thiol assay (control substrate). It is filed as biochemical.

The test system of the next series is T2, M. abscessus WT.
T2 construct: ATCC 19977
Briefly: microbe, parasite or virus in culture. Also on record: broth microdilution MIC according to CLSI, read at 14 days. The following applies: Mycobacteroides abscessus, 336 h, read-out: WT MIC (µg/mL), day 14.

The nature of another series: in vitro. Set-up: HepG2 cytotoxicity, Cell-Titer Glo. The conditions noted are these: human, hepg2 cells; read-out: HepG2 Cytotoxicity IC50. The procedure: (§1) MPS and cytotoxicity of experimental compounds and PTC-targeting controls against HepG2 (liver hepatocellular carcinoma cells ATCC HB-8065) were performed as previously described without any modifications (see ref. [56] for MPS assay and ref. [78] for cytotoxicity assay). […] Results reported as mean ± s.d., n = 3 biological replicate. The requirement for FF-NH2 to be activated by Eis2 led us to hypothesize that it would lack the mitochondrial protein synthesis (MPS) inhibition liability of other PTC-targeting agents. We therefore profiled FF-NH2, FF-ac and other analogues for MPS inhibition activity.

Series [2] relates to HepG2 mitochondrial protein synthesis. Nature of the series: cells. Set-up: mitochondrial protein synthesis inhibition in HepG2 cells. The conditions noted are these: Homo sapiens, read-out: MPS IC50. The procedure:
as §1, with “MPS inhibition and cytotoxicity assays MPS and” for “MPS and”

For series [3], the target named is T1, Eis2. Nature of the series: Michaelis-Menten acetylation kinetics with purified Eis2, DTNB free-thiol assay. The class given is biochemical.
Series [4] has as its system NCC[C@H](O)C(=O)N[C@@H]1C[C@H](N)[C@@H](O[C@H]2O[C@H](CN)[C@@H](O)[C@H](O)[C@H]2O)[C@H](O)[C@H]1O[C@H]1O[C@H](CO)[C@@H](O)[C@H](N)[C@H]1O. Nature of the series: purified protein, by the assay type. Also on record: Eis2 acetyltransferase kinetics, Michaelis-Menten fit for substrate. The text has this: Consistent with previous findings, the aminoglycoside controls AMK and [compound left out] were also shown as substrates of Eis2 (ref. [47]), as well as CAM-NH2 and TAM-NH2. […] These findings highlight how specific chemical modifications to antibiotics govern substrate specificity and antimicrobial efficacy.

≈ marks a conversion by molar mass, not a printed value.

T1 sequence (B1MKV6 entry or part of it): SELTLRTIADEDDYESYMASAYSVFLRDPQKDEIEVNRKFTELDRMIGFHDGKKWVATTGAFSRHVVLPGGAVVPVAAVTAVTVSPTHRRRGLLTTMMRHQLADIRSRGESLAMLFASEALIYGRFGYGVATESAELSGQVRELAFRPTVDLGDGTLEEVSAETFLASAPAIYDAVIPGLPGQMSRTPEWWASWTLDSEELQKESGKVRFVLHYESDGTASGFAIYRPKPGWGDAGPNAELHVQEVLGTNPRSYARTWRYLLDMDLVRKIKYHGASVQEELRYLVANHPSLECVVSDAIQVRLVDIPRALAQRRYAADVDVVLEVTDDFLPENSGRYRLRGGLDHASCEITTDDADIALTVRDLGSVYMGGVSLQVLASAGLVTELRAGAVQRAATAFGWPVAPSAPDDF

In the case of `NCC[C@H](O)C(=O)N[C@@H]1C[C@H](N)[C@@H](O[C@H]2O[C@H](CN)[C@@H](O)[C@H](O)[C@H]2O)[C@H](O)[C@H]1O[C@H]1O[C@H](CO)[C@@H](O)[C@H](N)[C@H]1O` [AMK, amikacin], the “Michaelis-Menten acetylation kinetics with purified Eis2, DTNB free-thiol assay” value on Eis2 [1] is “the aminoglycoside controls AMK and hygromycin B were also shown as substrates of Eis2”. Also, the MIC in the series on M. abscessus WT lay in the range of 4 to 8 µg/mL (≈ 6.83 to 13.7 µM).

Regarding `CC[C@H]1OC(=O)[C@H](C)[C@@H](O[C@H]2C[C@@](C)(OC)[C@@H](O)[C@H](C)O2)[C@H](C)[C@@H](O[C@@H]2O[C@H](C)C[C@H](N(C)C)[C@H]2O)[C@](C)(O)C[C@@H](C)CN(C)[C@H](C)[C@@H](O)[C@]1(C)O` [AZITH], in the series on M. abscessus WT, the MIC is > 32 µg/mL.

With `N[C@H](CO)[C@H](O)c1ccc([N+](=O)[O-])cc1` [CAM-NH2, chloramphenicol amine], in “in vitro”, the CC50 at 72 h was > 200 µM. Moreover, in series [2], the IC50 was > 100 µM.

For `CC[C@H]1OC(=O)[C@H](C)[C@@H](O[C@H]2C[C@@](C)(OC)[C@@H](O)[C@H](C)O2)[C@H](C)[C@@H](O[C@@H]2O[C@H](C)C[C@H](N(C)C)[C@H]2O)[C@](C)(OC)C[C@@H](C)C(=O)[C@H](C)[C@@H](O)[C@]1(C)O` [CLR], in the series on M. abscessus WT, the MIC came out at 2 µg/mL (≈ 2.67 µM).

As to `O=C(N[C@H](CO)[C@H](O)c1ccc([N+](=O)[O-])cc1)C(Cl)Cl` [Chloramphenicol], the CC50 at 72 h in “in vitro” was > 200 µM. Further, in series [2], the IC50 is 5.5 ± 2.5 µM.

In the case of `CC[C@H]1OC(=O)[C@H](C)[C@@H](O[C@H]2C[C@@](C)(OC)[C@@H](O)[C@H](C)O2)[C@H](C)[C@@H](O[C@@H]2O[C@H](C)C[C@H](N(C)C)[C@H]2O)[C@](C)(O)C[C@@H](C)C(=O)[C@H](C)[C@@H](O)[C@]1(C)O` [ERY], the MIC with M. abscessus WT is > 32 µg/mL.

As for `CS(=O)(=O)c1ccc([C@@H](O)[C@H](N)CF)cc1` [FF-NH2, florfenicol amine], in “in vitro”, the CC50 at 72 h was > 200 µM. Besides, the IC50 in series [2] was > 100 µM. For the same compound, the “Michaelis-Menten acetylation kinetics with purified Eis2, DTNB free-thiol assay” value on Eis2 [3] is recorded as “kcat/KM 6.7 × 10^3 ± 5.1 × 10^2”. Also, in the series with M. abscessus WT, the MIC lay within 62.5 to 125 µg/mL (≈ 253 to 505 µM).

Consider `CC(=O)N[C@H](CF)[C@H](O)c1ccc(S(C)(=O)=O)cc1` [FF-ac, florfenicol acetyl], for which the CC50 at 72 h in the series “in vitro” was > 200 µM. Also, in series [2], the 50% inhibitory concentration (IC50) stood at 4.7 ± 1.7 µM.

In the case of `CS(=O)(=O)c1ccc([C@@H](O)[C@@H](CF)NC(=O)C(Cl)Cl)cc1` [Florfenicol], the CC50 at 72 h in “in vitro” is > 200 µM. In series [2], the IC50 came out at 1.2 ± 0.2 µM.

As for `CC(=O)NC[C@H]1CN(c2ccc(N3CCOCC3)c(F)c2)C(=O)O1` [LZD], the MIC in the series on M. abscessus WT came out at 8 µg/mL (≈ 23.7 µM).

Take `CC(=O)NC[C@H]1CN(c2ccc(N3CCOCC3)c(F)c2)C(=O)O1` [Linezolid]: in the series “in vitro”, the CC50 at 72 h was > 200 µM. In addition, the IC50 in series [2] was determined as 6.2 ± 1.6 µM.

As for `O=C1CN(/N=C/c2ccc([N+](=O)[O-])o2)C(=O)N1` [Nitrofurantoin, nitrofurantoin], the CC50 at 72 h in “in vitro” was 6.8 ± 0.3 µM.

With `CN[C@@H]1[C@H](O)[C@H](NC)[C@H]2O[C@@]3(O)C(=O)C[C@@H](C)O[C@H]3O[C@@H]2[C@H]1O` [SPC], the MIC in the series on M. abscessus WT was 512 µg/mL (≈ 1540 µM).

Take `CS(=O)(=O)c1ccc([C@@H](O)[C@H](N)CO)cc1` [TAM-NH2, thiamphenicol amine]: the CC50 at 72 h in the series “in vitro” is > 200 µM. In addition, the concentration for half-maximal inhibition (IC50) in series [2] was > 100 µM.

With `CS(=O)(=O)c1ccc([C@@H](O)[C@@H](CO)NC(=O)C(Cl)Cl)cc1` [Thiamphenicol], the CC50 at 72 h in “in vitro” is > 200 µM. Besides, in series [2], the IC50 came to 1.4 ± 0.7 µM.

As for `CSc1ccc2c(c1)N(CCC1CCCCN1C)c1ccccc1S2` (stereo not shown) [Thioridazine, thioridazine], the CC50 at 72 h in “in vitro” came to 6.6 ± 0.3 µM.

With “Eis2 (Mycobacteroides abscessus ATCC 19977)”, in series [4], the Km stood at 232.6 ± 26 µM, the Vmax was 6 µM/min, the kcat amounted to 4.7 ± 0.5 s⁻¹ and the kcat/Km was determined as 20000 ± 320 M⁻¹ s⁻¹.
